Test results as given in patent US12157750B2, “Bright targetable red CA2+ indicators” (HOWARD HUGHES MEDICAL INSTITUTE, priority 2019, dated 2024).
Where “and” joins values, the source holds several entries; their conditions need not be identical. Equal entries are not always repeated. Where two headings read alike, the source gives them in different places.

Tests used:
[1] = test system: Primary rat hippocampal neurons; experiment: Calcium indicators characterization in primary neuron culture (evoked action potentials); type: cell-based; settings: for ΔF/F0, single AP: 1 AP
Protocol: Synaptic blockers (10 μM CNQX, 10 μM CPP, 10 μM GABAZINE, and 1 mM MCPG) were added to block ionotropic glutamate, GABA, and metabotropic glutamate receptors.^21 Each measurement was performed on 3 to 5 wells replicates.
Wide-field imaging was performed on an inverted Nikon Eclipse Ti2 microscope equipped with a SPECTRA X light engine (Lumencore), 20× objective (NA=0.75, Nikon), and imaged onto a scientific CMOS camera (Hamamatsu ORCA-Flash 4.0). […] A quad bandpass filter (set number: 89000, Chroma) was used along with the appropriate color band from the SPECTRA X light source to image 13AM.

[2] = UV-Vis and fluorescence spectroscopy; type: physicochemical; settings: in vitro; for λmax: first value of λmax/λem; for λem: second value of λmax/λem
Protocol: (§1) All measurements were taken at ambient temperature (23±2° C.). […] Spectroscopy was performed using 1-cm path length quartz cuvettes (Starna). Absorption measurements were recorded on a Cary Model 100 spectrometer (Varian). Fluorescence measurements spectra were recorded on a Cary Eclipse fluorometer (Varian). Images were processed in ImageJ/Fiji. Data was analyzed and graphs were plotted using Prism (GraphPad). Movie renderings were done using Imaris (Bitplane)
(§2) Example 15: UV-Vis and Fluorescence Spectroscopy, Kd Determination. UV-Vis and fluorescence spectra were measured in a commercial EGTA buffer system (Invitrogen) following the associated protocol. […] For calcium titrations of the HaloTag ligands in the presence of HaloTag protein, the dye was incubated with 1.5 eq of purified HaloTag protein ([…] solution in 75 mM NaCl, 50 mM Tris-HCl, pH 7.4) for 1 h at room temperature. Calcium titrations were then performed using the commercial EGTA buffer system to which 0.1 mg·mL^−1 CHAPS was added. All the calcium titrations were performed in duplicate.

[3] = Quantum yield determination; type: physicochemical; settings: fluorescence quantum yield at saturating Ca2+
Protocol: Example 16: Quantum Yield Determination. Absolute quantum yields (Φ) were measured using a Quantaurus-QY spectrometer (model C11374) from Hamamatsu. This instrument uses an integrating sphere to determine photons absorbed and emitted by a sample. Measurements were carried out using dilute samples (A<0.1) and self-absorption corrections were performed using the instrument software.^27

[4] = Calcium titrations in EGTA buffer system (ΔF/F0, Kd determination); type: binding; settings: for Kd: in vitro Ca2+ binding; for ΔF/F0: Ca2+-dependent change in fluorescence over baseline
Protocol: as §1, §2

[5] = test system: cultured neurons expressing NES-HaloTag-GFP; settings: cells expressing NES-HaloTag-GFP; same imaging conditions; normalized to GFP
Protocol: Primary rat hippocampal neurons were prepared as described previously and infected with AAV viruses.^1 Stock solutions of the different calcium indicators were prepared at C=1 mM in DMSO containing 20% Pluronic F-127. Cultured neurons were incubated with the cell-permeant sensors at 37° C. for 30 min (7AM and Calcium Orange-AM) or 2 h (12AM and 13AM) before washing twice with imaging buffer containing the following: 145 mM NaCl, 2.5 mM KCl, 10 mM glucose, 10 mM HEPES, pH 7.4, 2 mM CaCl2), 1 mM MgCl2. Synaptic blockers (10 μM CNQX, 10 μM CPP, 10 μM GABAZINE, and 1 mM MCPG) were added to block ionotropic glutamate, GABA, and metabotropic glutamate receptors.^21 Each measurement was performed on 3 to 5 wells replicates.
Wide-field imaging was performed on an inverted Nikon Eclipse Ti2 microscope equipped with a SPECTRA X light engine (Lumencore), 20× objective (NA=0.75, Nikon), and imaged onto a scientific CMOS camera (Hamamatsu ORCA-Flash 4.0). […]
Brightness comparison: The brightness of 12AM, jRGECO1a and jRCaMP1b in neurons were compared under the same illumination conditions. The fluorescence emission in each field of view was background subtracted and normalized by the emission of the fused EGFP to account for differences in expression levels among neurons.

[6] = test system: primary cilium in hRPE1 cells expressing 5HT6-HaloTag; settings: Ca2+ uncaging with 405 nm light
Protocol: Tet-on 5HT6-HaloTag RPE cells were plated in 8-well Labtek II chambers (Invitrogen) in 10% FBS DMEM:F12 media. The next day, the cells were serum deprived with 0% FBS DMEM:F12 medium with 100 ng/ml doxycycline to induce 5HT6-HaloTag expression. After 24 h of serum deprivation and doxycycline induction, cells were labeled with 1 μM 13AM overnight. After rinsing in DMEM:F12, the cells were loaded with 4 μM NP-EGTA, AM (ThermoFisher N6803) for 1 h. The medium was then replaced by DMEM Fluorobrite (ThermoFisher) for imaging in a 37° C., 5% CO2 chamber on an inverted Zeiss 880 with Airyscan. For each single cilium, 405 nm laser light (100%, 15 mW, 3s) uncaged free Ca^2+ from NP-EGTA in a 50-70 μm^2 area. Airyscan images were acquired at 0.5-0.8 s/stack for a total of 100 stacks (50-80 s) with 633 laser lines (13AM). Calcium uncaging was performed at the 50th stack. Change in intensity values were calculated in ImageJ using a maximum intensity projection series.

HaloTag protein = HaloTag protein (Rhodococcus rhodochrous, UniProt P0A3G2, A155T/A167V/A172T/A224E/C128F/C176G/D78G/E160K/E257K/H272N/K175M/K195N/L47V/L88M/N227D/P291S/S2A/S58T/T264A/Y273L/Y87F); experiment: Calcium titrations in the presence or absence of excess HaloTag protein; type: biochemical; settings: in vitro; saturating [Ca2+]
Protocol: as §2

[7] = known indicator, literature value (ref. 15); saturating Ca2+; cited from earlier work
[8] = known indicator, literature value (ref. 15); cited from earlier work
[9] = known indicator, cited from earlier work
[10] = cultured hippocampal neurons loaded with AM ester

Sequence of HaloTag protein (P0A3G2 other isoform, or with tags, fused parts or gaps with the stated changes): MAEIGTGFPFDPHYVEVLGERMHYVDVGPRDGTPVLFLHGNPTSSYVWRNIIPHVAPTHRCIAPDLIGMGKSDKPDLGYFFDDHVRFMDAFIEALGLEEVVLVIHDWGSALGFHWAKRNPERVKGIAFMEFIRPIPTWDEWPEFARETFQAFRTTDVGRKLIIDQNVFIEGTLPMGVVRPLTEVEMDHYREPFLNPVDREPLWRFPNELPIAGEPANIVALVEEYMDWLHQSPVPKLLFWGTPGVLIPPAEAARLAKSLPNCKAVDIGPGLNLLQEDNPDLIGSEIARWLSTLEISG

Compound | λmax [2] | λem [2] [nm] | ϕsat [3] | Kd [4] [nM] | ΔF/F0 ([4]; in vitro) | also measured
3″-BAPTA-JF549 tetra-acetoxymethyl ester [Compound 7AM] |  |  |  |  |  | saturating number of APs [1, 10]: 40 APs; ΔF/F0, single AP [1, 10]: 0.20; maximal ΔF/F0 ([1]; cultured hippocampal neurons loaded with AM ester, at saturation): 0.80; brightness compared to cells loaded with 2AM ([1]; cultured neurons): 10 ×; ΔF/F0 compared to cells loaded with 2AM ([1]; cultured neurons): 10 ×
3″-BAPTA-JF549-HaloTag ligand [Compound 12] | 553 nm | 573 | 0.78 | 130 | 9.5 | 
3″-BAPTA-JF549-HaloTag ligand tetra acetoxymethyl ester [Compound 12AM] |  |  |  |  |  | baseline fluorescence, brighter than jRCaMP1b [5]: 3.6 fold; baseline fluorescence, brighter than jRGECO1a [5]: 7.8 fold
3″-BAPTA-JF646-HaloTag ligand tetra acetoxymethyl ester [Compound 13AM] |  |  |  |  |  | ΔF/F0, single AP ([1]; cultured hippocampal neurons expressing NES-HaloTag-GFP): 0.11; ΔF/F0 across the entire cilium [6]: 0.60
O=C(O)CN(CC(=O)O)c1ccccc1OCCOc1cc(NC(=O)c2ccc(-c3c4ccc(=[N+]5CCC5)cc-4oc4cc(N5CCC5)ccc34)c(C(=O)[O-])c2)ccc1N(CC(=O)O)CC(=O)O [Compound 3, 5-BAPTA-JF549] | 554 nm | 579 | 0.69 | 190 | 2.3 | 
O=C(O)CN(CC(=O)O)c1ccccc1OCCOc1cc(NC(=O)c2ccc(C(=O)[O-])c(-c3c4ccc(=[N+]5CCC5)cc-4oc4cc(N5CCC5)ccc34)c2)ccc1N(CC(=O)O)CC(=O)O [Compound 4, 6-BAPTA-JF549] | 555 nm | 576 | 0.78 | 350 | 4.6 | improvement in ΔF/F0 compared to 3 ([4]; in vitro): 2 fold
CN(C(=O)c1cccc(C(=O)O)c1-c1c2ccc(=[N+]3CCC3)cc-2oc2cc(N3CCC3)ccc12)c1ccc(N(CC(=O)O)CC(=O)O)c(OCCOc2ccccc2N(CC(=O)O)CC(=O)O)c1 [Compound 5, 7-MeBAPTA-JF549] | 565 nm | 583 | 0.18 | 570 | 14 | 
O=C(O)CN(CC(=O)O)c1ccccc1OCCOc1cc(NC(=O)C2CC/[N+]2=c2/ccc3c(-c4ccccc4C(=O)[O-])c4ccc(N5CCC5)cc4oc-3c2)ccc1N(CC(=O)O)CC(=O)O (stereo not drawn) [Compound 6, 2″-BAPTA-JF549] | 542 nm | 566 | 0.45 | 270 | 27.7 | 
O=C(O)CN(CC(=O)O)c1ccccc1OCCOc1cc(NC(=O)C2C[N+](=c3ccc4c(-c5ccccc5C(=O)[O-])c5ccc(N6CCC6)cc5oc-4c3)C2)ccc1N(CC(=O)O)CC(=O)O (stereo not drawn) [Compound 7, 3″-BAPTA-JF549] | 546 nm | 569 | 0.75 | 310 | 15.0 | red-shift of λex and λem relative to compound 1 [2]: 50 nm
O=C(O)CN(CC(=O)O)c1ccccc1OCCOc1cc(NC(=O)C2CN(c3ccc4c(-c5ccccc5C(=O)[O-])c5ccc(=[N+]6CC(C(=O)Nc7ccc(N(CC(=O)O)CC(=O)O)c(OCCOc8ccccc8N(CC(=O)O)CC(=O)O)c7)C6)cc-5oc4c3)C2)ccc1N(CC(=O)O)CC(=O)O (stereo not drawn) [Compound 8, 3″,3″′-bisBAPTA-JF549] | 543 nm | 566 | 0.70 | 730 | 47.0 | 
O=C(O)CN(CC(=O)O)c1ccc(NC(=O)C2CN(c3ccc4c(-c5ccccc5C(=O)O)c5ccc(=[N+]6CCC6)cc-5oc4c3)C2)cc1OCCOc1cc(NC(=O)C2C[N+](=c3ccc4c(-c5ccccc5C(=O)O)c5ccc(N6CCC6)cc5oc-4c3)C2)ccc1N(CC(=O)O)CC(=O)O (stereo not drawn) [Compound 9, 3″-BAPTA-bisJF549] | 512-549 nm | 570 | 0.20 |  | 75.0 | 
O=C(O)CN(CC(=O)O)c1ccccc1OCCOc1cc(NC(=O)C2C[N+](=c3ccc4c(-c5cc(C(=O)NCCOCCOCCCCCCCl)ccc5C(=O)[O-])c5ccc(N6CCC6)cc5oc-4c3)C2)ccc1N(CC(=O)O)CC(=O)O (stereo not drawn) [Compound 12, 3″-BAPTA-JF549-HaloTag ligand] | 550 nm | 574 | 0.74 | 290 | 14 and 13.8 | 
C[Si]1(C)c2cc(N3CCC3)ccc2C2(OC(=O)c3ccc(C(=O)NCCOCCOCCCCCCCl)cc32)c2ccc(N3CC(C(=O)Nc4ccc(N(CC(=O)O)CC(=O)O)c(OCCOc5ccccc5N(CC(=O)O)CC(=O)O)c4)C3)cc21 (stereo not drawn) [Compound 13, 3″-BAPTA-JF646-HaloTag ligand] | 646 nm | 666 | 0.58 | 280 | 7.8 | increase in fluorescence upon binding to HaloTag (HaloTag protein): 2.4 fold
Calcium Orange [Compound 2] |  |  |  |  |  | ϕsat [7]: 0.33; Kd [8]: 185 nM; ΔF/F0 [8]: 3; λem ([9]; literature value (ref. 15)): 574 nm; λmax ([9]; literature value (ref. 15)): 549 nm; excitation maxima (λex) ([9]; literature value): 549 nm
Oregon Green BAPTA-1 [Compound 1] |  |  |  |  |  | Kd [8]: 170 nM; ΔF/F0 [8]: 14
